# Measured values published in patent US9452170B2, “Compounds and methods for inducing chondrogenesis” (The California Institute for Biomedical Research, priority 2013, dated 2016).
# Test system: Human MSCs
# Experiment: Human chondrocyte differentiation assay (immunostaining for type II collagen, Sox9 and COMP)
# Format: cell-based
# Conditions: 168 h, compound 1 μM, 7 days, vs DMSO vehicle, read-out: Biological Activity (increase in staining intensity compared to vehicle control)
# Experimental: Human MSCs (50,000) were plated into each well of a 96-well plate and cultured overnight. Compounds (in DMSO solution) were added to the cells at a final concentration of 1 μM, and the cells were cultured for 7 days at 5% CO2, 37° C. The cells were fixed with 10% formalin solution at room temperature for 10 min, and immunostained using antibodies specific for type II collagen (Abcam), Sox9 (Santa Cruz) and cartilage oligomeric matrix protein (COMP, Santa Cruz), and fluorescently labeled secondary antibodies (Li-Cor). The total intensity of the staining was measured using Oddyssey CLx imaging system (Li-Cor). Vehicle (DMSO) was used as control to determine the basal level of chondrocyte differentiation. […] Representative data are shown in Table 1 [A: >50% increase in staining intensity compared to vehicle control; B: 30-50% increase in staining intensity compared to vehicle control].
row,Structure (SMILES),activation at 1 µM
1,O=C(O)c1ccccc1C(=O)NCc1ccccc1OC(F)F [Compound 86],30 to 50%
2,N#Cc1cccc(NC(=O)c2ccccc2C(=O)O)c1F [Compound 35],30 to 50%
3,O=C(O)c1ccccc1C(=O)Nc1ccccc1OCC(F)(F)F [Compound 83],> 50%
4,CC(=O)CCc1cccc(NC(=O)c2ccccc2C(=O)O)c1 [Compound 145],30 to 50%
5,O=C(O)c1ccc(CNC(=O)c2ccccc2C(=O)O)c(Cl)c1 [Compound 96],30 to 50%
6,CC(O)Cc1ccc(NC(=O)c2ccccc2C(=O)O)cc1 (stereo not shown) [Compound 52],30 to 50%
7,COc1cccc(NC(=O)c2ccccc2C(=O)O)c1 [Compound 48],30 to 50%
8,N#Cc1cc(CNC(=O)c2ccccc2C(=O)O)ccc1C(=O)O [Compound 155],> 50%
9,CN(CCO)S(=O)(=O)c1ccccc1NC(=O)c1ccc(F)cc1 [Compound 125],30 to 50%
10,COC(=O)c1ccccc1NC(=O)Nc1cccc(C#N)c1 [Compound 202],> 50%
11,CCCS(=O)(=O)Nc1ccccc1C(=O)Nc1ccc(CCOC)cc1 [Compound 159],30 to 50%
12,Cc1ccc(NC(=O)c2ccccc2C(=O)O)c(C#N)c1 [Compound 13],30 to 50%
13,N#Cc1cc(Cl)cc(NC(=O)c2ccccc2C(=O)O)c1 [Compound 3],> 50%
14,N#Cc1ccc(NC(=O)c2ccccc2NS(=O)(=O)c2ccccc2)cc1 [Compound 77],> 50%
15,CON=C(C)c1cccc(NC(=O)c2ccccc2C(=O)O)c1 [Compound 59],30 to 50%
16,O=C(O)c1ccccc1NC(=O)c1ccccc1C(=O)O [Compound 55],> 50%
17,O=C(O)c1ccccc1C(=O)NCc1cc(C(F)(F)F)cc(C(F)(F)F)c1 [Compound 69],30 to 50%
18,NC(=O)c1ccc(CNC(=O)c2ccccc2C(=O)O)cc1 [Compound 172],30 to 50%
19,Cc1ccc2c(c1)C(=O)N(c1ccc(C(=O)O)cc1)C2=O [Compound 33],30 to 50%

row,Structure (SMILES),activation at 1 µM
1,CN(C(N)=O)c1ccccc1C(=O)Nc1ccc(C#N)cc1 [Compound 75],30 to 50%
2,CC(=O)c1ccc(Cl)c(NC(=O)c2ccccc2C(=O)O)c1 [Compound 4],> 50%
3,O=C(O)c1cccc(Cl)c1C(=O)Nc1ccc(CCCO)cc1 [Compound 186],30 to 50%
4,COc1ccc(OC)c(NC(=O)c2ccccc2C(=O)O)c1 [Compound 87],30 to 50%
5,N#Cc1cc(NC(=O)c2ccccc2C(=O)O)ccc1F [Compound 36],30 to 50%
6,O=C(O)c1ccccc1C(=O)Nc1ccccc1CCO [Compound 57],30 to 50%
7,N#Cc1ccccc1C(=O)CC1OC(=O)c2ccccc21 (stereo not shown) [Compound 40],30 to 50%
8,CN(C)S(=O)(=O)c1ccccc1NC(=O)c1ccc(C#N)cc1 [Compound 56],> 50%
9,COc1ccc(NC(=O)c2ccccc2C(=O)O)cc1C#N [Compound 7],> 50%
10,COCCc1ccc(NC(=O)c2ccccc2NS(=O)(=O)C(C)C)cc1 [Compound 162],30 to 50%
11,CC(=O)c1ccc(F)c(NC(=O)c2ccccc2C(=O)O)c1 [Compound 30],30 to 50%
12,O=C(O)c1cccc(F)c1C(=O)Nc1ccc(CCCO)cc1 [Compound 182],30 to 50%
13,O=C(O)c1ccc(CNC(=O)c2c(F)cccc2C(=O)O)cc1 [Compound 94],30 to 50%
14,O=C(O)c1ccccc1C(=O)Nc1ccc(Cl)cc1C(F)(F)F [Compound 11],30 to 50%
15,O=C(Nc1ccccc1S(=O)(=O)N1CCOCC1)c1cccc(F)c1 [Compound 110],30 to 50%
16,CC(=O)c1cc(NC(=O)c2ccccc2C(=O)O)ccc1Cl [Compound 5],30 to 50%
17,COc1ccc(C#N)cc1NC(=O)c1ccccc1C(=O)O [Compound 6],> 50%
18,O=C(O)c1ccc(S(=O)(=O)Nc2ccccc2C(=O)O)cc1 [Compound 53],30 to 50%
